One test has as its target rat CB1 (rCB1) (Rattus norvegicus (Rat), UniProt P20272). The test is described as follows: cAMP activation assay rCB1. It counts as cell-based. On the procedure: The test was performed in 96 well plates. For testing, 12 μl of cells (2×10^3 cells/well) were mixed with 12 μl of agonist at increasing concentrations. […] The plates were then incubated for 30 min at room temperature. After addition of the lysis buffer, cAMP concentrations were estimated, according to the manufacturer specification, with the HTRF kit from Cis-Bio International (Catalogue number 62AM2PEB).

Test [1] concerns spinal nerve ligation neuropathic pain model. Description: Tactile allodynia in SNL neuropathic pain model (von Frey). It counts as in vivo, rat. On the procedure:
Adult, male Sprague Dawley (Harlan Sprague Dawley, Indianapolis, Ind.) rats weighing 120-150 gm were used in experimental procedures approved by the Animal Care and Use Committee of the M. D. Anderson Cancer Center, University of Texas. Animals were housed three per cage on a 12/12 hr light/dark cycle with water and food pellets available ad libitum.
All surgical procedures were performed under deep isoflurane anesthesia in 100% 02. The spinal nerve ligation (SNL) was performed as described previously. Kim, S. H., et al., An Experimental Model for Peripheral Neuropathy Produced by Segmental Spinal Nerve Ligation in the Rat, Pain, 1992, 50:355-63. Briefly, a midline incision above the lumbar spine exposed the left L6 transverse process. The process was then removed, the left L5 and L6 spinal nerves were isolated, and both nerves were tightly ligated with 6-0 silk. Prophylactic antibiotic (norfloxacin 5 mg/kg subcutaneously) and analgesic (buprenorphine, 0.2-0.5 mg/kg, or morphine, 2.5 mg/kg, given subcutaneously) were administered once daily for 3 days. All the experiments were conducted 10-14 days after spinal nerve ligation.
Rats were placed in a compartment with a wire mesh bottom and allowed to acclimate for a minimum of 30 min before testing. Mechanical sensitivity was assessed using a series of Von Frey filaments with logarithmic incremental stiffness (0.41, 0.70, 1.20, 2.00, 3.63, 5.50, 8.50, and 15.1 g) (Stoelting, Wood Dale, Ill.) as previously described, and 50% probability withdrawal thresholds were calculated with the up-down method. Chaplan, S. R., et al., Quantitative Assessment of Tactile Allodynia in the Rat Paw, J. Neurosci. Methods, 1994, 53:55-63; Dixon, W., The Up-and-Down Method for Small Samples, J. Am. Stat. Assoc., 1965, 60:967-78. In brief, beginning with the 2.0-g probe, filaments were applied to the plantar surface of a hind paw for 6-8 s, in an ascending or descending order after a negative or positive withdrawal response, respectively. Six consecutive responses from the first change in the response were used to calculate the withdrawal threshold (in grams). In cases where response thresholds fell outside the range of detection, 15.00 and 0.25 g were, respectively, assigned for continuous negative or positive responses to the limit of stimuli. The percent maximal possible effect (% MPE) was calculated as ([postdrug threshold−baseline threshold]/[cutoff threshold (15 g)−baseline threshold])×100.
Statistical analyses were carried out using BMDP 2007 (Statistical Solutions, Saugus, Mass., USA) and Graph Pad Prism (version 4.03; Graph Pad Software Inc., San Diego, Calif., USA). Data were analyzed using one-way ANOVA, repeated measures ANOVA, or t-test where appropriate. If ANOVA was significant, Tukey-Kramer post hoc analysis was used for multiple group comparison. Area under the curve (AUC) was calculated using the trapezoidal rule. The results are presented as mean±s.e. mean and were considered significant at P<0.05. Analyses of the dose-response curves and statistics were obtained using the pharmacologic software programs of Tallarida and Murray and included calculation of the ED50 values and their 95% confidence intervals (CI). Tallarida, R. J., et al., Manual of Pharmacologic Calculations With Computer Programs, Second ed. New York: Springer-Verlag, 1987.

Test [2] relates to paclitaxel-induced neuropathy. Description: Prevention of neuropathy induced by paclitaxel. The class given is in vivo, rat. The method, then:
A mixture of saline and CREMOPHOR® ELP 10% was used as vehicle for paclitaxel. It was injected at a concentration of 1.0 mg/kg intraperitoneally to the chemotherapy-treated group of rats on 4 consecutive days for a final cumulative dose of 4 mg/kg to 18 rats.
Paw withdrawal thresholds were determined daily in both hind paws of each animal using calibrated von Frey monofilaments according to an up-down procedure. A series of von Frey filaments with exponentially incremental degrees of stiffness (0.4, 0.7, 1.2, 2.0, 3.6, 5.5, 8.5, and 15.1 g) was used to measure the 50% threshold for both hindpaw withdrawal in awake, unrestrained rats. Chaplan, S. R., Quantitative assessment of tactile allodynia in the rat paw, Journal of Neuroscience Methods, 1994, 53:55-63. Brisk paw withdrawal from the pressure of a filament gently bent against the plantar surface of the paw was defined as a positive response, and absence of withdrawal within 6 sec was considered a negative response. The series of filaments touched the hindpaw in sequential ascending or descending order of stiffness until the threshold of response was crossed (allowing about 10 sec between each increment). Each time the threshold was crossed, the direction of stimulus presentation was reversed and the procedure resumed. Four responses were collected after the first threshold detection, and the 50% withdrawal thresholds was interpolated. In cases in which the response thresholds fall outside the range of detection, 15.1 and 0.25 g were assigned for continuous negative or positive responses, respectively, to the limits of stimulation. FIG. 17 and FIG. 18 show results from these experiments and that peripheral neuropathy started to develop within a few days. FIG. 18 reflects that a plateau was reached by the 10th day.
Group 1 of rats received paclitaxel for four days, as described immediately above in subpart (A) titled “Paclitaxel-induced Neuropathy.” In group 2, a dose of 15 mg/kg of the compound of Example 3, injected intraperitoneally was administered 30 minutes prior to the administration of paclitaxel. In group 3, vehicle of the compound of Example 3 was administered 30 min prior to the administration of paclitaxel. Paw withdrawal thresholds were determined daily in both hind paws of each animal using calibrated von Frey monofilaments according to an up-down procedure as described immediately above in subpart (A) titled “Paclitaxel-induced Neuropathy.” The results are shown in FIG. 17.
FIGS. 19A and 19B show results from an experiment in which three groups of rats were administered 0.25 mL of the compound of Example 3 or the vehicle, a mixture of NMP, propylene glycol, chromophore ELP (25%, 25%, 10%) in sterile water 30 min prior to the administration of paclitaxel. Two of the three experimental groups continued to receive either the vehicle or the compound of Example 3 daily for 11 more days.

“Also recorded” adds a separate entry of the source. Bounds are passed on as bounds.

As usually defined, the EC50 is the concentration giving half of the maximal effect. Broadly, the ED50 is the dose that gives a 50% effect, or the effect in half of the subjects. Consider `CC1(Cc2ccccc2)COc2cc(C(=O)N3CCCCC3)ccc21` (stereo not drawn) [Example 3, 3-benzyl-3-methyl-2,3-dihydrobenzofuran-6-carboxylic acid-piperidine amide], for which the “activity at rCB1 receptors” value on rat CB1 (rCB1) was “did not exhibit any activity”. Moreover, the concentration giving a half-maximal response (EC50) at rat CB1 (rCB1) (read-out: Agonist EC50 (mean ± s.e. mean) cAMP activation assays rCB1) was above 10 µM. The “antiallodynic effect compared with 15 mg/kg AM1241 i.p.” value in test [1] (10 mg/kg i.p.) is reported as “significantly (P<0.001) greater”. For the same molecule, the ED50 in test [1] (Rattus norvegicus, ip, 0.5 h, i.p., at 30 min, SNL model, read-out: ED50 anti-allodynic effect (tactile allodynia)) amounted to 7.48 mg/kg. The “effect of AM251 pretreatment (5 mg/kg i.p.) on antiallodynic effects of the compound” value in test [1] (compound 10 mg/kg i.p., AM251 15 min prior) is recorded as “did not affect the antiallodynic effects; also recorded: had no effect”. For the same molecule, the “effect of AM630 pretreatment (5 mg/kg i.p.) on antiallodynic effects of the compound” value in test [1] (compound 10 mg/kg i.p., AM630 15 min prior) was “antagonized the effects; also recorded: reversed the antiallodynic effects; also recorded: significantly reversed”. Further, the “effect of naloxone pretreatment (10 mg/kg i.p.) on antiallodynic activity” value in test [1] (compound of Example 3 10 mg/kg i.p., naloxone 15 min prior) was “did not affect the antiallodynic effects; also recorded: had no effect”. In addition, the “effect on tactile allodynia” value in test [1] (i.p. 5, 10, 15 mg/kg) is listed as “attenuated tactile allodynia in a dose-related manner”. Moreover, the “development of paclitaxel-evoked mechano-allodynia” value is “did not prevent but significantly prevented the severity” in test [2] (15 mg/kg for 4 days only) and “completely prevented” in test [2] (continued 15 mg/kg IP daily). Besides, the “prevention of paclitaxel-induced neuropathy, share of rats” value in test [2] (administered for 14 days (4 days concomitant with paclitaxel and further 10 days)) came to 100%. Moreover, the “prevention of paclitaxel-induced neuropathy” value in test [2] (administered for four days only) is given as “short-lived prevention”.

The values above are taken from patent US9339486B2, “Heterocyclic modulators of cannabinoid receptors” (THE CLEVELAND CLINIC FOUNDATION, priority 2008, dated 2016).
